Results published in ChEMBL document CHEMBL1201862, “PubChem BioAssay data set” (2004).
Activity calls are given as the source filed them.

Key:
ORF 73 = ORF 73 (Human herpesvirus 8, UniProt O40947); assay: inhibitors of C-LANA binding to LBS DNA, dose response, biochemical, fluorescence polarization, cherry-picked samples (AID 504725); parameters: species or system Human gammaherpesvirus 8;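 note: fluorescence polarization of a labeled DNA duplex reporting LANA DNA binding; potency is for inhibitors that block LANA binding to the DNA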
SUMO-activating enzyme = SUMO-activating enzyme (Homo sapiens, UniProt Q9UBT2); assay: inhibitors of in vitro SUMOylation cascade, primary screen, biochemical, HTRF, uHTS (AID 2006); format: protein-complex assay
[1] = molecular target: T1, RNA-binding protein pos-1 (Caenorhabditis elegans, UniProt G5EF15); assay: inhibitors of POS-1/mex-3 RNA binding, dose response, biochemical, fluorescence polarization (AID 1964);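 note: purified POS-1 fused to maltose binding protein made in E. coli; potency of compounds blocking POS-1 binding to fluorescent RNA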
T1 sequence (G5EF15 whole entry): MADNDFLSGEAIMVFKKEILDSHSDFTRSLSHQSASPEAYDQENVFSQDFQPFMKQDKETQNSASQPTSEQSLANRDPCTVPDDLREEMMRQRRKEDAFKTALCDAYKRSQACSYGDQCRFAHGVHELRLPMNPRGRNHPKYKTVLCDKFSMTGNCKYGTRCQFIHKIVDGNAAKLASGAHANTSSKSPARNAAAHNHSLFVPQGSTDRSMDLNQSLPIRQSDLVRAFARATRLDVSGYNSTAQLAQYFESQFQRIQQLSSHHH

Sequence of SUMO-activating enzyme (Q9UBE0 whole entry, the tested form may be a part): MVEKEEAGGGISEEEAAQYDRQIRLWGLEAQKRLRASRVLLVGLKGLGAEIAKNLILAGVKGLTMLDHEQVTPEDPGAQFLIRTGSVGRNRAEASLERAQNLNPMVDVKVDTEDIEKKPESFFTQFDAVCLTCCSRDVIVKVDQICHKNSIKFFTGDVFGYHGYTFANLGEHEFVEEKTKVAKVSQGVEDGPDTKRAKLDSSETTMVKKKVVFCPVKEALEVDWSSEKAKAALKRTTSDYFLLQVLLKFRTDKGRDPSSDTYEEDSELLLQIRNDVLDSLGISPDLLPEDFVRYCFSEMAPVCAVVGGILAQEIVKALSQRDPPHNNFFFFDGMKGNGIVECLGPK
Sequence of SUMO-activating enzyme (Q9UBT2 whole entry, the tested form may be a part): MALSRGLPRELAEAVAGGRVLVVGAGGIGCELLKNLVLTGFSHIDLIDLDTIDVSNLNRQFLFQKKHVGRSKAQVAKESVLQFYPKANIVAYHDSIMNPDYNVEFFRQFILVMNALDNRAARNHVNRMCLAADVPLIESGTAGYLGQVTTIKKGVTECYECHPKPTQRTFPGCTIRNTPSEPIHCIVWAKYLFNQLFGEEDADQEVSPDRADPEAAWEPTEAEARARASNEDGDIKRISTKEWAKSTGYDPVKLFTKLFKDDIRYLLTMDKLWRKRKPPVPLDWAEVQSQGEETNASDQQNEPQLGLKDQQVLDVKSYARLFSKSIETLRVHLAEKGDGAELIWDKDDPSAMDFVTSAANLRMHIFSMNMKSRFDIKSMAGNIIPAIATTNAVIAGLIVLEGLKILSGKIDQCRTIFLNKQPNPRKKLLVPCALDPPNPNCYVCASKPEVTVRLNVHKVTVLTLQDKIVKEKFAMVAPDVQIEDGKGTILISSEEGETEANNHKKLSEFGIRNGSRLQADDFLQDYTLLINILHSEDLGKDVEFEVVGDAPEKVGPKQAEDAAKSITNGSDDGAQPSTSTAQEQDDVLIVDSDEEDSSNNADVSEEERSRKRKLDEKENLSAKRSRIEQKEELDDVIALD
Sequence of ORF 73 (O40947 whole entry): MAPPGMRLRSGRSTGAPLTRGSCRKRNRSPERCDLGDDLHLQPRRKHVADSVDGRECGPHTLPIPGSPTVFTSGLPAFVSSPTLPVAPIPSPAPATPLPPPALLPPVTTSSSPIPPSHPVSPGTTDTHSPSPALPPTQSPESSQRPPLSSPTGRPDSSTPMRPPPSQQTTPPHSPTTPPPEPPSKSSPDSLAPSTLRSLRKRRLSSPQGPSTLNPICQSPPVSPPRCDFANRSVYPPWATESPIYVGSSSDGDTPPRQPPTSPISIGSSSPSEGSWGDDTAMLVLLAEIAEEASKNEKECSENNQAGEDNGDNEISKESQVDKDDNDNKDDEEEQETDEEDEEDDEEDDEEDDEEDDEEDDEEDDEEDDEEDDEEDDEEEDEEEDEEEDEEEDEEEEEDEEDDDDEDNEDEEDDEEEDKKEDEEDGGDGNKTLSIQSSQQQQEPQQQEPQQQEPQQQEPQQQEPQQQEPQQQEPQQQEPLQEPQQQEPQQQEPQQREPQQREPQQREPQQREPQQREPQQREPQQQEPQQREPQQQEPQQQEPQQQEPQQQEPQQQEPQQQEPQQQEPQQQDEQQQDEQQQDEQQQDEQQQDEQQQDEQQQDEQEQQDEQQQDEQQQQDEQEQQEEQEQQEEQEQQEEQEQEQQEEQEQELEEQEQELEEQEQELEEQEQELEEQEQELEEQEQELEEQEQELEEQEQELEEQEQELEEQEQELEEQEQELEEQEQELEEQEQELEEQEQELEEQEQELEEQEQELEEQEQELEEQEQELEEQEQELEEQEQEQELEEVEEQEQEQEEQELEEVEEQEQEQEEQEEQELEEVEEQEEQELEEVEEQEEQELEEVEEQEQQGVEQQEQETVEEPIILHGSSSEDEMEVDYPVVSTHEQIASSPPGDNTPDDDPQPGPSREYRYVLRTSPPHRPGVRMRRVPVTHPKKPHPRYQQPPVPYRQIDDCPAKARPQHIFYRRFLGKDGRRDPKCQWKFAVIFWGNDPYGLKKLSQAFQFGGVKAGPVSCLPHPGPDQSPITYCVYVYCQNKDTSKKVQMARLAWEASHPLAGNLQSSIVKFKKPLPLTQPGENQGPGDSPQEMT

O=C(O)CC(C(=O)O)N1C(=O)/C(=C/C=C/c2ccco2)SC1=S (stereo not drawn)
active: AC50 (ORF 73) 28.9 µM | IC50 (SUMO-activating enzyme) 13.7 µM | EC50 [1] 10.4 µM
